Consider 2 compounds from patent US20080182895A1 (priority 2006, published 2008).

Where two headings read alike, the source gives them in different places.

Holding throughout (format): cell-based, Hepatitis C virus
One assay deals with 1b, BB7 replicon (WT). Briefly: Replicon 3-day assay, wild type. The note with it: read-out: EC50 (μM or pg/ml) ± SD. As for the experimental part: (§1) pBB7-replicon variant DNAs were linearized with Sca I, and in vitro transcription was performed using Ambion's […]® T7 High Yield Transcription kit (Austin, Tex.). Purified RNA transcripts were electroporated into Huh-7 cells in quadruplicates using a Biorad GENE PULSER® Electroporation System (Setting: 270V, 950 μF) (Hercules, Calif.). Stably transfected replicon variant cell lines were initially selected with 0.25 mg/ml G418 and stepped up to 1 mg/ml before further testing. One cell plate was stained with Crystal Violet to visualize the number of colonies and determine the colony formation efficiency. Individual cell clones from each plate were pooled and expanded for drug susceptibility testing.
(§2) The contribution of individual amino acid changes on drug resistance was assessed in replicon variants containing single amino acid mutations in NS5B in the background of the genotype 1b, BB7 adaptive replicon (Blight et al. (2000) Science 290:1972-74).
(§3) Drug susceptibility of the replicon-containing cells to various compounds was evaluated as described previously (Howe et al. (2004) Antimicrobial Agents Chem. 48:4813-21). Briefly, cells were treated with increasing concentrations of compounds in medium containing 2% FCS and no G418 for three days at 37° C. and 5% CO2. After incubation, total RNA from the replicon-containing cells was isolated. The levels of HCV, glyceraldehyde 3-phosphate dehydrogenase (GAPDH) and ribosomal (rRNA) RNAs were quantified using TAQMAN® (PE Applied Biosystems, Foster City, Calif.) reverse transcriptase PCR reactions. The amounts of HCV, 18S ribosomal, and GAPDH RNAs in each sample were estimated by comparing the number of cycles during the exponential phase of the PCR amplification with those in the corresponding standard curves. HCV RNA standards used for the construction of the standard curve were prepared by extracting the total RNA from the Clone A cells. The RNA sample was sent to National Genetics Institute to quantify HCV RNA. Total RNA extracted from Clone A cells was quantified by O.D.260 measurement and used for construction of the standard curves of rRNA and GAPDH. The concentrations of the compounds that inhibit 50% of the HCV RNA level (EC50) were determined using the MDL® LIFE SCIENCE WORKBENCH® (LSW) Data Analysis software (MDL Information Systems, San Leandro, Calif.) in Microsoft EXCEL®. The amounts of HCV or GAPDH RNAs in the samples were expressed as HCV RNA (copies) or GAPDH (ng), respectively, per μg of total RNA using rRNA as a marker for total RNA measurement.

Another assay deals with 1b, BB7-C316Y replicon. Briefly: Replicon variant 3-day assay. The conditions noted are these: for Fold Resistance: C316Y replicon vs 1b, BB7 (WT); for EC50: read-out: EC50 (μM or pg/ml) ± SD. The protocol: as §1, §2, §3
Assay [1] concerns 1b, BB7 replicon variants with single NS5B mutations. The experiment in a line: Replicon variant assay, several variants taken together. The conditions noted are these: replicon variants with HCV-796-associated mutations. As for the experimental part: as §1, §2, §3

For the compound `CCC[C@]1(CC(=O)O)OCCc2c1[nH]c1c(C)ccc(C#N)c21` [HCV-371, [(1R)-5-cyano-8-methyl-1-propyl-1,3,4,9-tetrahydropyano[3,4-b]indol-1-yl]acetic acid], the EC50 with 1b, BB7 replicon (WT) (1b, BB7 (WT) replicon) stood at 12.2 ± 1.8 µM; in the assay on 1b, BB7-C316Y replicon (C316Y replicon), 10.8 ± 0.8 µM. Moreover, the “Fold Resistance” value in the assay with 1b, BB7-C316Y replicon worked out at 0.9 fold.

Consider `NC(=O)c1ncn([C@@H]2O[C@H](CO)[C@@H](O)[C@H]2O)n1` [RBV, 1-β-D-ribofuranosyl-1H-1,2,4-triazole-3-carboxamide, reference compound], for which the EC50 is 133 ± 40.5 µM with 1b, BB7 replicon (WT) (Hepatitis C virus) and 201 ± 36.7 µM in the assay on 1b, BB7-C316Y replicon (Hepatitis C virus). Moreover, the “inhibition of the C316Y replicon compared with wild type (in words)” value in the assay with 1b, BB7-C316Y replicon (C316Y replicon variant vs wild type replicon) is listed as “as efficiently as in the wild type replicon”. In addition, the “Fold Resistance” value in the assay with 1b, BB7-C316Y replicon was 1.8 fold. The “susceptibility of HCV-796-resistant replicon variants to other antiviral agents (in words)” value in assay [1] (listed as Ribavirin) is “inhibits”; in assay [1] (listed as ribavirin) it was “remained susceptible”.
